Data taken from ChEMBL document CHEMBL1201862, “PubChem BioAssay data set” (2004).
Calls of active or inactive are those of the source.

How the values were obtained:
HT-1080 = experiment: HT1080 cell viability loss – fluorescence readout (AID 620); format: functional, cell-based; conditions: Homo sapiens
[1] = target: T1, Luciferin 4-monooxygenase (Photinus pyralis, UniProt P08659); experiment: Counter Screen for Luciferase-based Assay Positives. [Related pubchem assays: 620, 618, 411 ]
[2] = target: Mitogen-activated protein kinase 10 (Homo sapiens, UniProt P53779); experiment: Dose response biochemical screening assay for inhibitors of c-Jun N-Terminal Kinase 3 (JNK3). [Related pubchem assays: 746 ]
Sequence of Mitogen-activated protein kinase 10 (P53779 whole entry, the tested form may be a part): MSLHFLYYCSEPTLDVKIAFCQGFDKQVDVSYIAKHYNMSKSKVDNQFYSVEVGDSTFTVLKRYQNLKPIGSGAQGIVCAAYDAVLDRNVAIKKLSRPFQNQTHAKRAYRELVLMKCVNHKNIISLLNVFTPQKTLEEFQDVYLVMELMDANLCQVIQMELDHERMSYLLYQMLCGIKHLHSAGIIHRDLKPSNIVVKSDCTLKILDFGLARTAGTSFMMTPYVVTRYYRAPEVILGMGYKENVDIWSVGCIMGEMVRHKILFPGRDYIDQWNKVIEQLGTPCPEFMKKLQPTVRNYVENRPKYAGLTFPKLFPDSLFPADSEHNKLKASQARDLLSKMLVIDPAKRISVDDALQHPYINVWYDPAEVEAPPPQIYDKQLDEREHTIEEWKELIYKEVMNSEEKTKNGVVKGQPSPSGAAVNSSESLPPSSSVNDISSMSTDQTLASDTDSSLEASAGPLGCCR

[3] = HIV-1 AD8 envelope cell-cell fusion blockers – cherry-pick, dose response (AID 652062); format: functional, cell-based;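 also: luciferase signal from cell-cell fusion driven by HIV-1 clade B AD8 Env; potency is for inhibitors of fusion seen as a drop in luminescence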
[4] = blockers of HIV-1 ZM109 envelope-driven cell-cell fusion – HeLa effector, CEM target cells, luciferase, cherry-pick, dose response (AID 652058); format: functional, cell-based;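 also: luciferase signal from HIV-1 Env mediated cell-cell fusion of effector and target cells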
[5] = viability loss in CEM21 cells – cell-based, CellTiter-Glo luminescence, cherry-picked, cytotoxicity control for viral fusion inhibitor project, dose response (AID 652042); format: functional;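 also: potency for signal decrease meaning cytotoxicity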
[6] = blockers of HIV-1 envelope-mediated cell-cell fusion – cherry-pick, dose response (AID 652057); format: functional, cell-based
Prothrombin = Prothrombin (Homo sapiens, UniProt P00734); experiment: Thrombin 1536 HTS Dose Response Confirmation. [Related pubchem assays: 1046 (Thrombin 1536 HTS; hits were confirmed in this assay)]; format: functional
[7] = A2780 cell killing – plate reader, dry powder samples, cytotoxicity control, dose response (AID 743046); format: functional, cell-based
Paired box protein Pax-8 = Paired box protein Pax-8 (Homo sapiens, UniProt Q06710); experiment: PAX8 transcriptional activity inhibition in RMG-I – RMG-I cells, luciferase, cherry-pick, dose response (AID 687027); format: functional, cell-based;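 also: luciferase reporter driven by Pax8 target thyroperoxidase promoter measured by SteadyGlo luminescence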
Sequence of Paired box protein Pax-8 (Q06710 whole entry): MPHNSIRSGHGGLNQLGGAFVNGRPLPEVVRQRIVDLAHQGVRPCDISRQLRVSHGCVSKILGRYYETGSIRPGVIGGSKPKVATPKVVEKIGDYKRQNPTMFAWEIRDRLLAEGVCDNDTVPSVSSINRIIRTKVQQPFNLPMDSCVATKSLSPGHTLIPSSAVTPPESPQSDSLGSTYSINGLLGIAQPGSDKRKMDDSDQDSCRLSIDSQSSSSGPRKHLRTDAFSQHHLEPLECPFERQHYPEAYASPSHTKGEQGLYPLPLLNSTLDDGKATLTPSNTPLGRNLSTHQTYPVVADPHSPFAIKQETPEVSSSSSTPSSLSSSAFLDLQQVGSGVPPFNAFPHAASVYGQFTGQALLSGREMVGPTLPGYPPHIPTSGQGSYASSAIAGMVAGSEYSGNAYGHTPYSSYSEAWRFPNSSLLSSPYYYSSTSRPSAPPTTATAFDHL

[8] = OVCAR8 cell viability loss – plate reader, dry powder samples, PAX8 project, dose response (AID 743197); format: functional, cell-based; conditions: OVCAR-8
[9] = target: Disintegrin and metalloproteinase domain-containing protein 17 (Homo sapiens, UniProt P78536); experiment: exosite inhibitors of ADAM17, dose response, biochemical (AID 743260)
Sequence of Disintegrin and metalloproteinase domain-containing protein 17 (P78536 whole entry, the tested form may be a part): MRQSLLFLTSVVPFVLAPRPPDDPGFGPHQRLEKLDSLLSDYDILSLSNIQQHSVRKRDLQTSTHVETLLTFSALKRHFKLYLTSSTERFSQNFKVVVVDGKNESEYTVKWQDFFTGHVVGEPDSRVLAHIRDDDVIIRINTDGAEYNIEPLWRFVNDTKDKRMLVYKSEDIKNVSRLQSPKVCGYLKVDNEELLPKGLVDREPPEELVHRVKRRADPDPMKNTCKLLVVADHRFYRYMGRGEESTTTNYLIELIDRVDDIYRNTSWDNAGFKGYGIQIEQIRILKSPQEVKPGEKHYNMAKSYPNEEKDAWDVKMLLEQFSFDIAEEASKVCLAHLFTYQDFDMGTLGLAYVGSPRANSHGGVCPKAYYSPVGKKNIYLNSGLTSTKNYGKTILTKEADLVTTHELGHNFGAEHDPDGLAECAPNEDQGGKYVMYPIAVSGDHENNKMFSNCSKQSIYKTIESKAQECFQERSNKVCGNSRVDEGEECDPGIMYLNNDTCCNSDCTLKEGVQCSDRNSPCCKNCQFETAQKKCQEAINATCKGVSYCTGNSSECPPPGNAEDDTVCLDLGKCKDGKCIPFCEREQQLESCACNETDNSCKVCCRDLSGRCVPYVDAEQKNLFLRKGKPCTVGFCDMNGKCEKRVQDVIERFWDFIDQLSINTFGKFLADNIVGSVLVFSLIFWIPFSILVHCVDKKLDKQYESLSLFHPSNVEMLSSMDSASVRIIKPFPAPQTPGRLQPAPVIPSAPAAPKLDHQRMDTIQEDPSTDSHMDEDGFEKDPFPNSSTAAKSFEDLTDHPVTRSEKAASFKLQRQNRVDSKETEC

[10] = inhibition of ADAM10 peptide cleavage – biochemical, FRET peptide substrate, recombinant human ADAM10, selectivity assay for ADAM17 exosite inhibitor project, dose response (AID 743259);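 also: ADAM10 enzyme cleaving a FRET peptide substrate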
[11] = Trypanosoma cruzi growth suppression in host cells – NIH3T3 host cells, beta-gal luminescence, confirmation (AID 2044); format: functional, cell-based;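 also: intracellular parasites grown in NIH/3T3 mouse fibroblasts as host cells; luminescent beta-galactosidase reporter signal from transgenic T. cruzi replicating inside host cells; inhibitors lower the luminescence signal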
[12] = NIH3T3 cell viability loss – ATP luminescence, mouse fibroblasts, counter-screen, dose response (AID 2010); format: functional, cell-based;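 also: cells exposed to compound for about 90 hours before reading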
[13] = OVCAR-3 cell viability loss – plate reader, dry powder samples, PAX8 inhibitor project, dose response (AID 743044); format: functional, cell-based
[14] = IGROV1 cell killing – plate reader, dry powder samples, PAX8 inhibitor project, dose response (AID 743043); format: functional, cell-based; conditions: IGROV-1
[15] = Dd2 malaria parasite growth inhibition potency – SYBR Green, dry powder samples, dose response (AID 1159566); format: functional, cell-based;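 also: potency for growth inhibition with lower SYBR green DNA signal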
[16] = toxicity to human HepG2 hepatoma cells – cell-based, plate reader, dry powder samples, cytotoxicity control, dose response (AID 1159569); format: functional;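 also: inhibitor potency with signal falling toward the positive control level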
[17] = growth inhibition of yeast DHODH-expressing 3D7 parasites – SYBR Green, dry powder samples, dose response (AID 1159570); format: functional, cell-based;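 also: parasite growth measured after 72 hours of compound exposure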
[18] = growth inhibition of PfATP4-mutant resistant parasites – NITD609-resistant line, SYBR Green, dry powder, dose response (AID 1159571); format: functional, cell-based;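 also: parasites synchronized at ring stage by sorbitol before testing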
[19] = P. falciparum Dd2 growth inhibitors, dose response, SYBR Green, cherry-picked samples (AID 1159567); format: functional, cell-based
[20] = target: T2, Oxysterols receptor LXR-beta (Homo sapiens, UniProt P55055); experiment: LXR agonists, Gal4 luciferase reporter, dose response, counter-screen for ssDAF-12 agonist project, cell-based, luminescence, HEK293, S. stercoralis campaign (AID 720737); format: functional; conditions: read-out: IC50 (the source's name)
T2 sequence (P55055 whole entry): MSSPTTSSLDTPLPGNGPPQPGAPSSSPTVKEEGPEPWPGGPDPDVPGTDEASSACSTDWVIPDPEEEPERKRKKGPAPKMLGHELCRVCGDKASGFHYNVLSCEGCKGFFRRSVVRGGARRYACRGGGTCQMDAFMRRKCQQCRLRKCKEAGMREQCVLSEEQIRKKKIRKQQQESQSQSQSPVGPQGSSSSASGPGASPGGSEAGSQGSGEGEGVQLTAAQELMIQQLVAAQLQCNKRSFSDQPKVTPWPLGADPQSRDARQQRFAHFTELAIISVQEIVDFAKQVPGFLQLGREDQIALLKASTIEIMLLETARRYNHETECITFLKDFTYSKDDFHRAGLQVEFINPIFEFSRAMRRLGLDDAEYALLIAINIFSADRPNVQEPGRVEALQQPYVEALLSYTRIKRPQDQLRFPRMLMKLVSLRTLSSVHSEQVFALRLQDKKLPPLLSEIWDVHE

[21] = Luminescence-based cell-based high throughput dose response assay to identify activators of the DAF-12 from the parasite S. stercoralis (ssDAF-12).; format: functional
[22] = viability inhibitors of stage V gametocytes – luminescence, dose response (AID 1117278); format: functional, cell-based;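 also: gametocytes exposed to compound for 24 hours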
[23] = viability loss in human Jurkat cells – cell-based, luminescence, cytotoxicity control for P. falciparum gametocyte viability project, dose response (AID 1117277); format: functional;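 also: potency reflects loss of cellular ATP meaning fewer viable cells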
[24] = target: T1, Luciferin 4-monooxygenase; experiment: inhibition of purified Photinus pyralis luciferase – biochemical, luminescence, dose response (AID 1891)
[25] = alpha-synuclein stem-loop luciferase translation blockers – H4 neuroglioma cells, luminescence, confirmation (AID 1988); format: functional, cell-based
[26] = target: T3, Heat shock factor protein 1 (Mus musculus, UniProt P38532); experiment: decrease of HSF1-responsive luciferase luminescence – cell-based, NIH3T3, dose retest, confirmation (AID 2382); format: functional;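 also: NIH3T3 fibroblasts with HSF1-driven luciferase reporter stressed by proteasome inhibitor MG132; luminescence from HSF1-driven luciferase expression after 8 hours of MG132 stress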
T3 sequence (P38532 whole entry): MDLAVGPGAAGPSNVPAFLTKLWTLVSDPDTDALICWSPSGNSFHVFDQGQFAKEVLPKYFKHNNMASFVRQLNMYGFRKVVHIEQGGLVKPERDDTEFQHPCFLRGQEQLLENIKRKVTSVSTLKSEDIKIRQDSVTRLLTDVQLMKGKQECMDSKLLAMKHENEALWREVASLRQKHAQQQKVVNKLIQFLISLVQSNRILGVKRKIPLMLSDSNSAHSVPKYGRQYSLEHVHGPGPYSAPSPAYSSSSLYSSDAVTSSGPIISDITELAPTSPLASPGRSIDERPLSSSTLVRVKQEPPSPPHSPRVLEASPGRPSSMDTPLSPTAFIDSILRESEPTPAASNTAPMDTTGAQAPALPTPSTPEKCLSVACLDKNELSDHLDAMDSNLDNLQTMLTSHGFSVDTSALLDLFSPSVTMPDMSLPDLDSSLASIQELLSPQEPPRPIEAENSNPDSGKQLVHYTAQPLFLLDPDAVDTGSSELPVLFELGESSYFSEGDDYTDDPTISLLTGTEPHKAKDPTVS

[27] = Luminescence Cell-Based Dose Response HTS to Identify Inhibitors of 5'UTR Stem-Loop Driven Prion Protein mRNA Translation in H4 Neuroglioblastoma Cells. [Related pubchem assays: 1827 (Project Summary), 1813 (Primary HTS)]; format: functional
[28] = Luminescence Cell-Based Dose Confirmation HTS to Identify Inhibitors of Platelet Dense Granule Release. [Related pubchem assays: 1663 (Primary HTS), 1678 (Summary of Project)]; format: functional
Estrogen receptor = target: T4, Estrogen receptor (Homo sapiens, UniProt P03372);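 also: potency for inhibiting coactivator peptide recruitment to the receptor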
T4 sequence (P03372 whole entry): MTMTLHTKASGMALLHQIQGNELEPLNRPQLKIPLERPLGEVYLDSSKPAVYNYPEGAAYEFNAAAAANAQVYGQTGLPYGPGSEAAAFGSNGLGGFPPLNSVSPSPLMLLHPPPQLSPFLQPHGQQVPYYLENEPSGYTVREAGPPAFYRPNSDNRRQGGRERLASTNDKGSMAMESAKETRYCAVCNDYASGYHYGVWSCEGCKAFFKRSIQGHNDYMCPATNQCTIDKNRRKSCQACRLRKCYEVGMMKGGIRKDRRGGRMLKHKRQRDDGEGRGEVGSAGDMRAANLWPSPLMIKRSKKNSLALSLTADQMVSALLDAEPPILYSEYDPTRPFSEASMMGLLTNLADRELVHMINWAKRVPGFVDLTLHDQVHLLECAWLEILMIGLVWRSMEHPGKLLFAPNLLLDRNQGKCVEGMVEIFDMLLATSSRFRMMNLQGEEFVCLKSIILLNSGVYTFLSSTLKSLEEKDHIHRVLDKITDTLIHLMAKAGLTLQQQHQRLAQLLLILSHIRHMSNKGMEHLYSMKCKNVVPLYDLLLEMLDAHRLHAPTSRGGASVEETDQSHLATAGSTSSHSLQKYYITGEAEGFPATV

[29] = microbe, parasite or virus in culture; format: functional; conditions: Mycobacterium tuberculosis
[30] = target: FAD-linked sulfhydryl oxidase ALR (Homo sapiens, UniProt P55789); experiment: ALR-catalysed DTT oxidation blockers – biochemical, H2O2 detection, luminescence, cherry-pick, dose response (AID 493248)
Sequence of FAD-linked sulfhydryl oxidase ALR (P55789 whole entry, the tested form may be a part): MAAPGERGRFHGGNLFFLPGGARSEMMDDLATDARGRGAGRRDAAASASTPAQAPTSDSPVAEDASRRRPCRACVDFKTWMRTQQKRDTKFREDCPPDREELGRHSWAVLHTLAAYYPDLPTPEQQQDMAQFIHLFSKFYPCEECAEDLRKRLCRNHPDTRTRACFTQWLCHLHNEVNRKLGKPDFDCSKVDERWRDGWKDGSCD

[31] = off-target signal loss in HeLa-CEM21 co-culture – HeLa F-luc CTL cells, cherry-picked, counter-screen for HIV-1 Env fusion inhibitor project, dose response (AID 652040); format: functional, cell-based;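 also: potency for signal decrease marking cytotoxic or nonspecific inhibition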
INS1 = experiment: INS-1E survival protection against cytokine death – cell-based, luminescence, retest, dose response (AID 449756); format: functional; conditions: Rattus norvegicus;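 also: cell death triggered by IL-1 beta plus TNF-alpha plus IFN-gamma mixture; protective hits raise ATP signal compared with cytokine alone wells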

T1 sequence (P08659 whole entry): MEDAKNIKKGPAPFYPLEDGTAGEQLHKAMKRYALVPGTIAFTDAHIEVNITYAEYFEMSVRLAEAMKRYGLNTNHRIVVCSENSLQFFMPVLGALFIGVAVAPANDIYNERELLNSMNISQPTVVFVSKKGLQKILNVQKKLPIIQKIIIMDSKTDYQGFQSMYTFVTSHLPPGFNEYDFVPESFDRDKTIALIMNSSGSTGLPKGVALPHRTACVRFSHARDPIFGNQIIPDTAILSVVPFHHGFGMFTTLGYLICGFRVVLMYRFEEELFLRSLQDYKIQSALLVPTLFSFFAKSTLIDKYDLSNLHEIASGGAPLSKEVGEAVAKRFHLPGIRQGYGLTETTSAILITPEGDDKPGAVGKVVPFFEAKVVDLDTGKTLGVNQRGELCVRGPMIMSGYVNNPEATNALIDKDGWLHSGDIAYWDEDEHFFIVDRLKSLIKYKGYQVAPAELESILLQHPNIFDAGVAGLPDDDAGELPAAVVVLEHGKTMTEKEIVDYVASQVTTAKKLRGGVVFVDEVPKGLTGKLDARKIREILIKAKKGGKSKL

Structure (SMILES): Cc1cccc(-n2ncc3c(N4CCCC4)ncnc32)c1
- EC50 (HT-1080): > 50 µM (not active)
- EC50 [1]: 1.02 µM (active)

Structure (SMILES): c1ccc(-c2n[nH]c3c2CCC3)cc1
- IC50 [2]: 50.9 µM (not active)

Structure (SMILES): CO[C@H]1CN(C)C(=O)c2ccc(NC(=O)C3CC3)cc2OC[C@H](C)N(Cc2cc(F)ccc2F)C[C@@H]1C
- AC50 [3]: 1.5 µM (active)
- AC50 [4]: 0.668 µM (active)
- AC50 [5]: 59.9 µM (active)
- AC50 [6]: 0.851 µM (active)

Structure (SMILES): COC(=O)CN1C(=O)C(O)(CC(=O)c2ccc(Cl)cc2)c2ccccc21 (stereo unspecified)
- IC50 (Prothrombin): > 50 µM (not active)

Structure (SMILES): Cc1ccccc1-c1ccc2c(c1)O[C@H](CN(C)C(=O)Nc1ccc(C(F)(F)F)cc1)[C@H](C)CN([C@H](C)CO)S2(=O)=O
- AC50 [7]: 14.3 µM (active)
- AC50 (Paired box protein Pax-8): 9.06 µM (active)
- AC50 [8]: > 70 µM (inactive)

Structure (SMILES): CC(C)Nc1nc(NC(C)C)nc(N(C#N)CCOc2ccc(Cl)cc2Cl)n1
- IC50 [9]: > 69.5 µM (inactive)
- IC50 [10]: 13.5 µM (inactive)
- EC50 [11]: 1.4 µM (active)
- EC50 [12]: > 60 µM (not active)

Structure (SMILES): CN(C)S(=O)(=O)c1cccc(NC(=O)c2cc(-c3cccs3)nn2-c2cccc(Cl)c2)c1
- IC50 [9]: > 69.5 µM (inactive)
- IC50 [10]: > 69.5 µM (inactive)

Structure (SMILES): COc1ccc2c3c(n(C)c2c1)[C@H](CO)N(C(=O)Nc1ccc(F)cc1)CC31CCN(C(=O)c2ccc3c(c2)OCO3)CC1
- AC50 [13]: 28.6 µM (active)
- AC50 [14]: 57.7 µM (active)
- AC50 [7]: 22.5 µM (active)
- AC50 [15]: 0.892 µM (active)
- AC50 [16]: > 100 µM (inactive)
- AC50 (Paired box protein Pax-8): 6.51 µM (active)
- AC50 [17]: 1.2 µM (active)
- AC50 [18]: 0.75 µM (active)
- AC50 [19]: 1.79 µM (active)
- AC50 [8]: 4.33 µM (active)

Structure (SMILES): COC(=O)c1ccccc1NC(=O)NCc1ccncc1
- EC50 [20]: > 67.5 µM (inactive)
- IC50 [21]: > 67.5 µM (inactive)

Structure (SMILES): Cc1ccc(NC(=O)c2ccc3ccccc3n2)cc1S(=O)(=O)N1CCOCC1
- IC50 (Prothrombin): 40.9 µM (active)

Structure (SMILES): CCc1ccc(CN(C)Cc2nc(COc3ccccc3)no2)nc1
- IC50 [22]: > 109 µM (inactive)
- IC50 [23]: > 83.3 µM (inactive)

Structure (SMILES): COc1ccc(/N=C/C2=C(O)c3ccccc3C2=O)c(OC)c1
- EC50 [24]: 1.21 µM (active)
- EC50 [25]: 8.03 µM (active)
- EC50 (HT-1080): > 50 µM (not active)
- EC50 [26]: 2.42 µM (active)
- EC50 [1]: 50.2 µM (active)
- EC50 [27]: 11.7 µM (active)
- EC50 [28]: 3.47 µM (active)

Structure (SMILES): CC(=O)Oc1ccc(C(=O)Nc2cccc(C(=O)c3ccc(C)c(C)c3)c2)cc1
- IC50 [9]: > 69.5 µM (inactive)
- IC50 [10]: > 69.5 µM (inactive)

Structure (SMILES): O=C1c2ccccc2C(O)N1Cc1cccs1 (stereo unspecified)
- IC50 [22]: > 109 µM (inactive)
- IC50 [23]: > 83.3 µM (inactive)

Structure (SMILES): Cc1ccc(NCc2nc3ccccc3n2C)cc1
- EC50 [20]: > 67.5 µM (inactive)
- IC50 [21]: > 67.5 µM (inactive)

Structure (SMILES): Cc1nc2cccc(C(=O)NCc3ccccc3)c2o1
- IC50 [2]: 45.5 µM (not active)
- IC50 (Estrogen receptor): 48.4 µM (not active)

Structure (SMILES): COc1ccc2nc(NC(=O)Cc3ccc(OC)c(S(=O)(=O)N4CCOCC4)c3)sc2c1
- IC50 [2]: 28.1 µM (not active)

Structure (SMILES): CC(=O)Nc1ccc(S(=O)(=O)Nc2ccc(N3CCCCC3)cc2)cc1
- CC50 [29]: 27.3 µM (active)
- AC50 [3]: 17.8 µM (active)
- AC50 [4]: 1.18 µM (active)
- AC50 [5]: 23.4 µM (active)
- AC50 [30]: 2.07 µM (active)
- AC50 [31]: 22.6 µM (active)
- AC50 (INS1): 3.64 µM (active)
- AC50 [6]: 10.4 µM (active)
